Measurements taken from ChEMBL document CHEMBL3885881, “DrugMatrix”.

Species: Rattus norvegicus
Experiment: DrugMatrix - Regimen: Daily Repeat
Format: toxicity, organism-based, Sprague-Dawley
Parameters: regimen Daily Repeat, gender Male, age 6-8 weeks
Details: in vivo, iv, vehicle 100 % SALINE; for ABSOLUTE BASOPHIL / ABSOLUTE EOSINOPHIL / ABSOLUTE LYMPHOCYTE / ABSOLUTE MONOCYTE / ABSOLUTE SEGMENTED NEUTROPHIL / BASOPHIL / EOSINOPHIL / ERYTHROCYTE COUNT / HEMATOCRIT / LEUKOCYTE COUNT / LYMPHOCYTE / MEAN CORPUSCULAR HEMOGLOBIN / MEAN CORPUSCULAR HEMOGLOBIN CONCENTRATION / MONOCYTE / NEUTROPHIL / NUCLEATED RED BLOOD CELLS / PLATELET COUNT / HEMOGLOBIN: tissue Blood
[1] = 6 mg/kg, 72 h, tissue Plasma, dose level Low, time 3 day
[2] = 6 mg/kg, 120 h, dose level Low, time 5 day
[3] = 6 mg/kg, 120 h, tissue Plasma, dose level Low, time 5 day
[4] = 14 mg/kg, 72 h, dose level High, time 3 day
[5] = 14 mg/kg, 72 h, tissue Plasma, dose level High, time 3 day
[6] = 14 mg/kg, 120 h, dose level High, time 5 day
[7] = 14 mg/kg, 120 h, tissue Plasma, dose level High, time 5 day

CARBOPLATIN
TOTAL PROTEIN [1]: 6.3 G/DL | URIC ACID [1]: 1.1 mg/dL | ABSOLUTE BASOPHIL [2]: 0 CELLS/uL | ABSOLUTE EOSINOPHIL [2]: 0 CELLS/uL | ABSOLUTE LYMPHOCYTE [2]: 10376.67 CELLS/uL | ABSOLUTE MONOCYTE [2]: 36 CELLS/uL | ABSOLUTE SEGMENTED NEUTROPHIL [2]: 287.33 CELLS/uL | BASOPHIL [2]: 0% | EOSINOPHIL [2]: 0% | ERYTHROCYTE COUNT [2]: 5.55 x10E6/uL | HEMATOCRIT [2]: 34.6% | LEUKOCYTE COUNT [2]: 10.7 x10E3/uL | LYMPHOCYTE [2]: 97% | MEAN CORPUSCULAR HEMOGLOBIN [2]: 24.17 pg | MEAN CORPUSCULAR HEMOGLOBIN CONCENTRATION [2]: 38.73 G/DL | MONOCYTE [2]: 0.33% | NEUTROPHIL [2]: 2.67% | NUCLEATED RED BLOOD CELLS [2]: 0.33 /100WBC | PLATELET COUNT [2]: 1189.33 x10E3/uL | ALANINE AMINOTRANSFERASE [3]: 46 u/L | ALKALINE PHOSPHATASE [3]: 366 u/L | ASPARTATE AMINOTRANSFERASE [3]: 90.67 u/L | CARBON DIOXIDE [3]: 29 mmol/L | CHOLESTEROL [3]: 74.67 mg/dL | CREATINE PHOSPHOKINASE [3]: 348 u/L | CREATININE [3]: 0.38 mg/dL | GLUCOSE [3]: 158.33 mg/dL | LACTATE DEHYDROGENASE [3]: 130.67 u/L | LIPASE [3]: 9 u/L | PHOSPHORUS [3]: 10.43 mg/dL | POTASSIUM [3]: 5.45 MEQ/L | TOTAL BILIRUBIN [3]: 0.17 mg/dL | TOTAL PROTEIN [3]: 6.07 G/DL | URIC ACID [3]: 0.87 mg/dL | ABSOLUTE BASOPHIL [4]: 0 CELLS/uL | ABSOLUTE EOSINOPHIL [4]: 14 CELLS/uL | ABSOLUTE LYMPHOCYTE [4]: 7854 CELLS/uL | ABSOLUTE MONOCYTE [4]: 121.33 CELLS/uL | ABSOLUTE SEGMENTED NEUTROPHIL [4]: 410.67 CELLS/uL | BASOPHIL [4]: 0% | EOSINOPHIL [4]: 0.33% | ERYTHROCYTE COUNT [4]: 6.2 x10E6/uL | HEMATOCRIT [4]: 38.03% | HEMOGLOBIN [4]: 15.03 G/DL | LEUKOCYTE COUNT [4]: 8.4 x10E3/uL | LYMPHOCYTE [4]: 94% | MEAN CORPUSCULAR HEMOGLOBIN [4]: 24.43 pg | MEAN CORPUSCULAR HEMOGLOBIN CONCENTRATION [4]: 39.67 G/DL | NEUTROPHIL [4]: 4% | NUCLEATED RED BLOOD CELLS [4]: 1 /100WBC | PLATELET COUNT [4]: 574 x10E3/uL | ALANINE AMINOTRANSFERASE [5]: 46.67 u/L | ALBUMIN [5]: 4.5 G/DL | ALKALINE PHOSPHATASE [5]: 398.67 u/L | ASPARTATE AMINOTRANSFERASE [5]: 94.33 u/L | BLOOD UREA NITROGEN [5]: 15.67 mg/dL | CARBON DIOXIDE [5]: 29.33 mmol/L | CHLORIDE [5]: 97 MEQ/L | CHOLESTEROL [5]: 78.33 mg/dL | CREATINE PHOSPHOKINASE [5]: 381 u/L | CREATININE [5]: 0.22 mg/dL | GLUCOSE [5]: 145.33 mg/dL | LACTATE DEHYDROGENASE [5]: 168.33 u/L | LIPASE [5]: 11 u/L | POTASSIUM [5]: 6.3 MEQ/L | TOTAL BILIRUBIN [5]: 0.23 mg/dL | TOTAL PROTEIN [5]: 6.6 G/DL | URIC ACID [5]: 1.1 mg/dL | ABSOLUTE BASOPHIL [6]: 0 CELLS/uL | ABSOLUTE EOSINOPHIL [6]: 0 CELLS/uL | ABSOLUTE LYMPHOCYTE [6]: 7567 CELLS/uL | ABSOLUTE MONOCYTE [6]: 38.67 CELLS/uL | ABSOLUTE SEGMENTED NEUTROPHIL [6]: 427.67 CELLS/uL | BASOPHIL [6]: 0% | EOSINOPHIL [6]: 0% | ERYTHROCYTE COUNT [6]: 5.69 x10E6/uL | HEMATOCRIT [6]: 34.77% | HEMOGLOBIN [6]: 13.5 G/DL | LEUKOCYTE COUNT [6]: 8.03 x10E3/uL | LYMPHOCYTE [6]: 94.33% | MEAN CORPUSCULAR HEMOGLOBIN CONCENTRATION [6]: 38.83 G/DL | MONOCYTE [6]: 0.33% | NEUTROPHIL [6]: 5.33% | NUCLEATED RED BLOOD CELLS [6]: 0.33 /100WBC | PLATELET COUNT [6]: 1070.33 x10E3/uL | ALANINE AMINOTRANSFERASE [7]: 54 u/L | ALKALINE PHOSPHATASE [7]: 340 u/L | ASPARTATE AMINOTRANSFERASE [7]: 84.33 u/L | BLOOD UREA NITROGEN [7]: 18 mg/dL | CARBON DIOXIDE [7]: 28 mmol/L | CHOLESTEROL [7]: 71.67 mg/dL | CREATINE PHOSPHOKINASE [7]: 378.67 u/L | CREATININE [7]: 0.28 mg/dL | GLUCOSE [7]: 151.67 mg/dL | LACTATE DEHYDROGENASE [7]: 133 u/L | LIPASE [7]: 11.67 u/L | PHOSPHORUS [7]: 10.93 mg/dL | POTASSIUM [7]: 4.99 MEQ/L | TOTAL BILIRUBIN [7]: 0.17 mg/dL | TOTAL PROTEIN [7]: 6.07 G/DL | URIC ACID [7]: 0.83 mg/dL
